# According to BindingDB's records for PubMed 35695407 (Chinese Academy of Sciences, 2022):
# Molecular target: T1, Programmed cell death protein 4 (Homo sapiens, UniProt Q53EL6)
# T1 sequence (Q53EL6 whole entry): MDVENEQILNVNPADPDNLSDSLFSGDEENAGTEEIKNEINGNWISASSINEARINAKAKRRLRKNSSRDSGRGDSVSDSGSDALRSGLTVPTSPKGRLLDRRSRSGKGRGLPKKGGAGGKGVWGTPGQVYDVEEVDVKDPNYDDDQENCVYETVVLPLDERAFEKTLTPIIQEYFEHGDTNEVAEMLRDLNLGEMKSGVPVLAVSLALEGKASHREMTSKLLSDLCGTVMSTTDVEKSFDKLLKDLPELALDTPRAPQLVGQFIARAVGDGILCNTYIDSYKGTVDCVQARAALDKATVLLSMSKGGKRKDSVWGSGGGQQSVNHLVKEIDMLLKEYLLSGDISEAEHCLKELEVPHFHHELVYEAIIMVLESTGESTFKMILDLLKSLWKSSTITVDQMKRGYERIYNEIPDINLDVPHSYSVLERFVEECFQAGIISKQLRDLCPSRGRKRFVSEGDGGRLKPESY
# Experiment: Inhibition of PDCD4 in human HeLa cells tranfected with pCI-neo-luciferase-PDCD4 3'-UTR plasmid assessed as increase in luciferase activity by luciferase reporter assay
compound,measurement,value
CCOC(=O)c1nc(-c2ccc(OC)cc2)oc1C,EC50,2250 nM
